Experimental data: patent US5747545A, “Method of preventing NMDA receptor complex-mediated Neuronal damage” (priority 1995, dated 1998)
Entries after “also recorded” stand apart in the source; their conditions may differ.

What was measured:
[1] = system: cortical neurons (neuronal survival)
Description: S-nitrosocysteine was added as a source of NO.cndot. to cerebrocortical cultures (Lei et al., (1992) Neuron 8:1087-1099; Stamler et al., (1992) Science 258:1898-1902).
Peroxynitrite leads to lipid peroxidation and massive oxidation of sulfhydryls (Radi et al., (1991) J. Biol. Chem. 266:4244-4250; Radi et al., (1991) Arch. Biochem. Biophys. 288:481-487).
Values are expressed as mean+s.e.m. (n=9). Statistical comparisons were performed by an analysis of variance followed by a Scheffe multiple comparison of means (*, P<0.01 compared to control; **, P<0.05 compared to control; .dagger., P<0.01 compared to nitroso compound+SOD/catalase).
Specifically, the data in FIG. 7 were generated using mixed neuronal and glial cortical cultures from neonatal rats, as described previously (Lei, et al., (1992) Neuron 8:1087-1099). In at least three separate experiments, triplicate cultures were incubated overnight in Earle's buffered saline solution (EBSS) containing various concentrations of SNOC, peroxynitrite, SOD, catalase, or glutamate. […] The culture fluid was assayed for […] (LDH) as an indicator of neuronal survival by measuring the absorbance at 450 nm (Koh et al., (1987) J. Neurosci. Meth. 20:83-90). The cultures were also scored for neuronal viability by cell counting, generally with 0.2% trypan blue, after fixation in 2.5% glutaraldehyde, as described above. Neurons from cultures grown on 15 mm diameter cover slips were counted in a masked fashion in ~30 microscopic fields at 200 x.

physchem = assay type: physicochemical; conditions: pH 7.4
[2] = system: NMDA receptor (rat cortical neurons in culture); experiment: Digital fura-2 imaging of NMDA-evoked intracellular [Ca2+] in cultured cortical neurons; assay type: cell-based, rat (Sprague-Dawley); conditions: after 2 mM DTT; 3 min exposure to 100 μM SNOC; NMDA 50 μM; FIG. 5A, P<0.01
[3] = system: retinal ganglion cells (NMDA receptor-mediated neurotoxicity); experiment: Retinal ganglion cell survival assay (endogenous glutamate-related toxin, high calcium, low magnesium medium); assay type: cell-based, rat (Long-Evans); conditions: FIG. 3'
Description: To test amantadine derivatives for their ability to prevent neurotoxicity, neuronal cell death may be assayed as follows. […] Two to 6 days later, the animals are sacrificed by decapitation and enucleated, and the retinas quickly removed. The retinas are dissociated by mild treatment with the enzyme papain and cultured in Eagle's minimum essential medium (MEM, catalog #1090, Gibco, Grand Island, N.Y.) supplemented with 0.7% (w/v) methylcellulose, 0.3% (w/v) glucose, 2 mM glutamine, 1 μg/ml gentamicin, and 5% (v/v) rat serum, as described in Lipton et al., J. Physiol. 385:361, 1987. The cells are plated onto 75 mm^2 glass coverslips coated with poly-L-lysine in 35 mm tissue culture dishes. […]
To perform the viability test, the cell-culture medium is exchanged for physiological saline containing 0.0005% fluorescein diacetate for 15-45 s, and then cells are rinsed in saline. […] In contrast, the viable retinal ganglion cells display not only a blue color in the UV light but also a yellow-green fluorescence with filters appropriate for fluorescein. Thus, the use of two exchangeable fluorescence filter sets permits the rapid determination of viable ganglion cells in the cultures. […]

[4] = system: NMDA receptor (rat retinal ganglion cells); experiment: Whole-cell patch clamp of NMDA-elicited current on rat retinal ganglion cells; assay type: cell-based, rat (Long-Evans)
Excerpt: (§1) FIGS. 4A'-4B' depict evidence for open-channel block of NMDA-elicited whole-cell current by memantine (MEM) on rat retinal ganglion cells. […] A rapid application system was used to administer the drugs, and a fast washout method was used in the experiments shown in FIGS. 4A' and 4B'.
(§2) For retinal ganglion cell labeling, dissociation, and culture, we used techniques that have been detailed elsewhere (Leifer et al. (1984) Science 224:303-306). […] Two to six days later, the animals were killed by decapitation. Following enucleation, the retinas were dissociated with mild treatment with the enzyme papain. The retinal cells were than plated onto glass coverslips coated with poly-L-lysine in 35 mm tissue culture dishes. The growth medium was Eagle's minimum essential medium supplemented with 0.7% (w/v) methylcellulose, 0.3% (w/v) glucose, 2 mM glutamine, 5% (v/v) rat serum, and 1 μg/ml gentamicin. Retinal ganglion cells were identified by the presence of the retrogradely transported dye granular blue.
Whole-cell and single-channel recordings of rat retinal ganglion cells were performed as described in detail elsewhere (Hamill et al., 1981; Lipton and Tauck, 1987). The neurons were continuously superfused in a chamber at 27°-29° C. with a bath solution composed of (in mM) NaCl, 137.6; KCl, 5.8; CaCl2, 2.5; HEPES, 5; glucose, 22.2; with phenol red, 0.001% (v/v); glycine, 1 μM; pH 7.2; and no added magnesium. The patch pipettes were filled with an intracellular solution containing (in mM) CsCl, 120; tetraethylammonium chloride, 20; HEPES, 10; EGTA, 2.25; CaCl2, 1; and MgCl2, 2; and sometimes with 3 mM Mg-ATP to minimize rundown in prolonged recordings (pH 7.2). […]. Solution changes could be achieved rapidly, within 50-100 msec, by moving the array of constantly flowing pipette tips relative to the cell with a micromanipulator driver. A control pipette containing bath solution and 1 μM TTX was used to wash out NMDA-inducedcurrent rapidly.

[5] = system: kainate (KA)-elicited current (rat retinal ganglion cells); experiment: Whole-cell patch clamp of kainate-elicited current on rat retinal ganglion cells; assay type: cell-based, rat (Long-Evans); conditions: 12 μM memantine, 50 μM kainate
Excerpt: as §1, §2
(§3) Whole-cell and single-channel recordings of rat retinal ganglion cells were performed as described in detail elsewhere (Hamill et al., 1981; Lipton and Tauck, 1987). […]

[6] = system: quisqualate (QUIS)-elicited current (rat retinal ganglion cells); experiment: Whole-cell patch clamp of quisqualate-elicited current on rat retinal ganglion cells; assay type: cell-based, rat (Long-Evans); conditions: 12 μM memantine, 5 μM quisqualate
Excerpt: as §1, §2, §3

[7] = system: NMDA antagonist (MK-801) binding to post-mortem human brain homogenates; conditions: Kornhuber et al. 1989; cited from earlier work
NMDA receptor channels = conditions: Bormann 1989; cited from earlier work

| SMILES | Killing of cortical neurons [1] | Maximally-lethal concentration [1] [µM] | half-life (physchem) [s] | Effect on NMDA-evoked [Ca2+]i response (SNOC experiment) [2] | minimal effective concentration ([3]; Rattus norvegicus, compared to control, read-out: Concentration at which increased neuronal survival reached statistical significance) [µM] | Effect on retinal ganglion cell death from endogenous glutamate-related toxin ([3]; memantine 1-25 μM, 16-20 h, 37° C.) | Kinetics for blocking/unblocking NMDA receptor-mediated response [4] | Effect of memantine when administered alone ([4]; 12 μM memantine alone, -60 mV, FIG. 4b' left) | Effect on NMDA-induced current ([4]; 12 μM memantine, 200 μM NMDA, -50 and +50 mV) | Inhibition of response to NMDA ([4]; 12 μM memantine, 200 μM NMDA, -60 mV, n=17) [%] | Effect on kainate-elicited current [5] | Effect on quisqualate-elicited current [6] | Inhibition of binding of MK-801 [7] | Block of NMDA receptor channels (NMDA receptor channels) |
| --- | --- | --- | --- | --- | --- | --- | --- | --- | --- | --- | --- | --- | --- | --- |
| N[C@@H](CSN=O)C(=O)O [SNOC, S-nitrosocysteine] | dose-dependent killing of cortical neurons | 200 | ~30 | recovered only slightly | – | – | – | – | – | – | – | – | – | – |
| CC12CC3CC(C)(C1)CC(N)(C3)C2 [memantine, 1-amino-3,5-dimethyl adamantine] | – | – | – | – | 6 | prevented retinal ganglion cell death from the endogenous glutamate-related toxin in a dose-dependent manner; also recorded: blocks neuronal cell death mediated by excessive stimulation of the NMDA receptor | relatively rapid | lack of effect | blocking effect | 90 | did not affect the current | did not affect the current | inhibits the binding of an NMDA antagonist (MK-801) | blocks NMDA receptor channels |
